Laboratory results from publication PMC7824787, “Design, Synthesis and In Vitro Investigation of Novel Basic Celastrol Carboxamides as Bio-Inspired Leishmanicidal Agents Endowed with Inhibitory Activity against Leishmania Hsp90” (Biomolecules, 2021).
Like-named read-outs stand apart in the source and are kept apart here.

How the values were obtained:
[1] = system: L. infantum promastigotes; assay: Antileishmanial activity on L. infantum promastigotes (MTT); assay type: cell-based; conditions: Leishmania infantum, 72 h, 23 °C, MTT, read-out: Leishmania Promastigotes IC50, L. infantum
Procedure: Promastigote stage of L. infantum (MHOM/TN/80/IPT1, kindly provided by Dr. M. Gramiccia and Dr. T. Di Muccio, ISS, Roma) and L. tropica (MHOM/SY/2012/ISS3130) were cultured in RPMI 1640 medium (EuroClone) supplemented with 15% heat-inactivated fetal calf serum (EuroClone, Milan, Italy), 20 mM HEPES, and 2 mM L-glutamine at 23 °C. The MTT (3-[4.5-dimethylthiazol-2-yl]-2.5-diphenyltetrazolium bromide) method was used to estimate the 50% inhibitory concentration (IC50), with some modifications. Compounds were dissolved in DMSO and then diluted with medium to achieve the required concentrations. Test compounds were placed in 96 wells round bottom microplates and seven serial dilutions made. Amphotericin B was used as the reference antileishmanial drug. Parasites were diluted in complete medium to 5 × 10^6 parasites/mL and 100 μL of the suspension was seeded into the plates and incubated at 23 °C for 72 h. Then 20 μL of MTT solution (5 mg/mL) was added into each well, after 3 h the plates were centrifuged, the supernatants discarded and the resulting pellets dissolved in 100 μL of lysing buffer consisting of 20% (w/v) of a solution of SDS (Sigma), 40% of N,N-dimethylformamide (Merck) in H2O. The absorbance of the obtained solutions was measured at a wavelength of 550 nm with a reference at 650 nm with a microplate spectrophotometer (Synergy 4-Biotek, Milan, Italy) and analyzed with the Gen5® software for data processing.
The results are expressed as IC50, the dose of compound that is necessary to inhibit cell growth by 50%; each IC50 value is the mean ± standard deviation of at least three separate experiments performed in duplicate.

[2] = system: L. infantum promastigotes; assay: Morphological differentiation of Leishmania promastigotes; assay type: cell-based, Leishmania infantum; conditions: 50 ng/mL, 23 °C, 48 h (Figure 6)
Procedure: L. infantum promastigotes were diluted in complete medium to 4 × 10^7 parasites/mL and 250 µL of the suspension were seeded into the 24 wells plates and incubated at 23 °C in the presence of geldanamycin, CE or compound 2 at the final concentration of 50 ng/mL. Cultures without drugs incubated at 23 °C or at 37 °C were used as negative and positive control, respectively. After 24 or 48 h of incubation, parasite morphology was evaluated by optical microscopy at 100× (Eclipse Ti Series, Nikon, Minato, Tokyo, Japan) on Giemsa stained smears (a mixture of eosin, methylene blue and Azure-B diluted 1:10). The percent of round promastigotes in treated and non-treated cells was determined. Images were taken at the same magnification by using a digital camera (Nikon Digital Sight). About 500 promastigotes were counted in 4 random fields.
The compounds were incubated (23 °C, physiological pH) with L. infantum promastigotes at a sub-IC50 concentration of 50 ng/mL. […] After 24 h and 48 h the presence of round, amastigote-like cells, was monitored (Figure 6). A negative and positive control experiment (NC and PC, Figure 6a,b) were also conducted growing the promastigotes at 23 °C and 37 °C, respectively.

LbHsp90 = LbHsp90 (Leishmania braziliensis, UniProt A4HL70); assay: LbHsp90 ATPase kinetics (NADH-coupled enzymatic cascade); assay type: biochemical
LbHsp90, sequence (A4HL70 entry or part of it): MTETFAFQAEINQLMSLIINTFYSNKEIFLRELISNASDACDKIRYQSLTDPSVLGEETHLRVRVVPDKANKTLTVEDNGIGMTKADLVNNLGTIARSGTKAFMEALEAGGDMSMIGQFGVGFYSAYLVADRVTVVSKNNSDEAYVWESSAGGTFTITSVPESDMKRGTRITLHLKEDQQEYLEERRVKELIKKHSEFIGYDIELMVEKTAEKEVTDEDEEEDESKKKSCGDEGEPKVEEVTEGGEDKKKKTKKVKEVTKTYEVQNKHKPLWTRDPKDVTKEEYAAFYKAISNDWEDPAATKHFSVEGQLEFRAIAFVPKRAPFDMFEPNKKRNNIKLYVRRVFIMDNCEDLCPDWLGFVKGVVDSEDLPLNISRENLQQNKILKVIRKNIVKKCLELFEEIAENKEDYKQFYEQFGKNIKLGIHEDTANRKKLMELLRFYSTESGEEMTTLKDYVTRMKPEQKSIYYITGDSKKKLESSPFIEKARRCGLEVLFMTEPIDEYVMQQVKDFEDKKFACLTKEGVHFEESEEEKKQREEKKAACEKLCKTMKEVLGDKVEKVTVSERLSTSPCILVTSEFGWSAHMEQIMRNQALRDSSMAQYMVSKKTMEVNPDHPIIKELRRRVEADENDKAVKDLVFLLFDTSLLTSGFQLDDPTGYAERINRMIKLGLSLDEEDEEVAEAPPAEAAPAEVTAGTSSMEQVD
Procedure: The reaction was initiated by the addition of ATP (1 mM) and absorbance changes at 346 nm were monitored for 30 min at 30 °C.
Native LbHsp90 kinetics was measured as described but in the absence of DMSO. Two control experiments were run as follows: • (1) Efficiency of the enzymatic cascade by the used compounds: HEPES buffer (20 mM, pH 7.5) containing KCl (100 mM), MgCl2 (1 mM), ADP (1 mM), NADH (0.18 mM), L-lactate dehydrogenase (4 U mL^−1), phosphoenolpyruvate (1 mM), pyruvate kinase (2.5 U mL^−1); • (2) Interference of the tested compound(s) with the enzymatic cascade: HEPES buffer (20 mM, pH 7.5) containing KCl (100 mM), MgCl2 (1 mM), ADP (1 mM), NADH (0.18 mM), L-lactate dehydrogenase (4 U mL^−1), phosphoenolpyruvate (1 mM), pyruvate kinase (2.5 U mL^−1) and 50 μM compound.
Accordingly, an in vitro assay developed for the evaluation of non-competitive allosteric modulators, which exploits ATPase kinetics data, was used. Briefly, the decrease in absorbance deriving from the continuous oxidation of NADH to NAD^+ produced by a multi-enzymatic cascade triggered by LbHp90-catalyzed ATP hydrolysis is followed spectrophotometrically over the course of 15 min (for details see Appendix B). All the experiments were normalized using the native ATPase activity of LbHsp90 measured in the presence of DMSO, the co-solvent selected for compounds solubilization.
Figure A1 Enzymatic cascade reactions to spectroscopically evaluate L. Hsp90 ATPase kinetics. The ADP produced by ATP hydrolysis during the chaperone cycle reacts with PEP (phosphoenolpyruvate) to form pyruvate in a reaction catalyzed by the enzyme pyruvate kinase (PK), whereby ATP is regenerated. Pyruvate then continues the cascade process and is reduced to lactic acid by action of lactate dehydrogenase (LDH), whereby NADH is oxidized to NAD^+.
LbHsp90 inhibition (%) = (1 − k/knative) * 100 k = ΔAbs/min = extrapolated apparent kinetic constant (Abs/min)

**Q.** Which results are given for `COC1=C2C[C@@H](C)C[C@H](OC)[C@H](O)[C@@H](C)/C=C(\C)[C@H](OC(N)=O)[C@@H](OC)/C=C\C=C(/C)C(=O)NC(=CC1=O)C2=O` [GA, geldanamycin]?
**A.** IC50 [1]: 140 ± 40 nM; round amastigote-like cells (morphological differentiation) [2]: ~40%; inhibition at 10 µM (LbHsp90; GA dose-response, 10 μM): 0.1 ± 0.02%; inhibition at 15 µM (LbHsp90; GA dose-response, 15 μM): 0.2 ± 0.05%; inhibition at 20 µM (LbHsp90; GA dose-response, 20 μM): 0.3 ± 0.08%; inhibition at 50 µM (LbHsp90; GA dose-response, 50 μM, read-out: LbHsp90 Inhibition (%)): 0.7 ± 0.04%; inhibition at 100 µM (LbHsp90; GA dose-response, 100 μM): 6.5 ± 0.9%; inhibition at 200 µM (LbHsp90; GA dose-response, 200 μM): 30.7 ± 1.2%; inhibition at 400 µM (LbHsp90; GA dose-response, 400 μM): 52.3 ± 0.8%; inhibition at 600 µM (LbHsp90; GA dose-response, 600 μM): 76.9 ± 3%; inhibition at 800 µM (LbHsp90; GA dose-response, 800 μM): 90.5 ± 2.5%; inhibition at 1000 µM (LbHsp90; GA dose-response, 1000 μM (1 mM), 1 mM ATP): 99 ± 0.9%; inhibition at 1200 µM (LbHsp90; GA dose-response, 1200 μM): > 99%; inhibition at 50 µM (LbHsp90; read-out: LbHsp90 Inhibition (%), compound 50 μM, 3.5 μM LbHsp90, 1 mM ATP): < 0.05%
